How the values were obtained:
[1] = biological target: Phosphatidylinositol 4,5-bisphosphate 3-kinase catalytic subunit alpha isoform (Homo sapiens, UniProt P42336); assay: Inhibition of PI3Kalpha (unknown origin) using PIP2/PS as substrate compound preincubated for 15 mins by luciferase-based luminescence assay
[2] = biological target: Serine/threonine-protein kinase mTOR (Homo sapiens, UniProt P42345); assay: Inhibition of mTOR (unknown origin) after 40 mins by TR-FRET assay
SK-OV-3 = assay: Antiproliferative activity against human SKOV3 cells after 72 hrs by CellTiter-Glo assay; assay type: functional, cell-based; conditions: SK-OV-3, 72 h
[3] = Oral bioavailability in CD-1 mouse at 6.81 mg/kg; assay type: ADME, organism-based; conditions: in vivo
[4] = Clearance in CD-1 mouse at 1.3 mg/kg, iv; assay type: ADME, organism-based; set-up: dose 1.3 mg/kg, route intravenous; conditions: in vivo
[5] = Half life in CD-1 mouse at 6.81 mg/kg, po; assay type: ADME, organism-based; set-up: dose 6.81 mg/kg, route oral; conditions: in vivo
[6] = Half life in CD-1 mouse at 1.3 mg/kg, iv; assay type: ADME, organism-based; set-up: dose 1.3 mg/kg, route intravenous; conditions: in vivo
[7] = AUC (infinity) in CD-1 mouse at 6.81 mg/kg, po; assay type: ADME, organism-based; set-up: time infinity, dose 6.81 mg/kg, route oral; conditions: plasma
[8] = AUC (infinity) in CD-1 mouse at 1.3 mg/kg, iv; assay type: ADME, organism-based; set-up: time infinity, dose 1.3 mg/kg, route intravenous; conditions: plasma

Phosphatidylinositol 4,5-bisphosphate 3-kinase catalytic subunit alpha isoform, sequence (P42336 whole entry, canonical isoform): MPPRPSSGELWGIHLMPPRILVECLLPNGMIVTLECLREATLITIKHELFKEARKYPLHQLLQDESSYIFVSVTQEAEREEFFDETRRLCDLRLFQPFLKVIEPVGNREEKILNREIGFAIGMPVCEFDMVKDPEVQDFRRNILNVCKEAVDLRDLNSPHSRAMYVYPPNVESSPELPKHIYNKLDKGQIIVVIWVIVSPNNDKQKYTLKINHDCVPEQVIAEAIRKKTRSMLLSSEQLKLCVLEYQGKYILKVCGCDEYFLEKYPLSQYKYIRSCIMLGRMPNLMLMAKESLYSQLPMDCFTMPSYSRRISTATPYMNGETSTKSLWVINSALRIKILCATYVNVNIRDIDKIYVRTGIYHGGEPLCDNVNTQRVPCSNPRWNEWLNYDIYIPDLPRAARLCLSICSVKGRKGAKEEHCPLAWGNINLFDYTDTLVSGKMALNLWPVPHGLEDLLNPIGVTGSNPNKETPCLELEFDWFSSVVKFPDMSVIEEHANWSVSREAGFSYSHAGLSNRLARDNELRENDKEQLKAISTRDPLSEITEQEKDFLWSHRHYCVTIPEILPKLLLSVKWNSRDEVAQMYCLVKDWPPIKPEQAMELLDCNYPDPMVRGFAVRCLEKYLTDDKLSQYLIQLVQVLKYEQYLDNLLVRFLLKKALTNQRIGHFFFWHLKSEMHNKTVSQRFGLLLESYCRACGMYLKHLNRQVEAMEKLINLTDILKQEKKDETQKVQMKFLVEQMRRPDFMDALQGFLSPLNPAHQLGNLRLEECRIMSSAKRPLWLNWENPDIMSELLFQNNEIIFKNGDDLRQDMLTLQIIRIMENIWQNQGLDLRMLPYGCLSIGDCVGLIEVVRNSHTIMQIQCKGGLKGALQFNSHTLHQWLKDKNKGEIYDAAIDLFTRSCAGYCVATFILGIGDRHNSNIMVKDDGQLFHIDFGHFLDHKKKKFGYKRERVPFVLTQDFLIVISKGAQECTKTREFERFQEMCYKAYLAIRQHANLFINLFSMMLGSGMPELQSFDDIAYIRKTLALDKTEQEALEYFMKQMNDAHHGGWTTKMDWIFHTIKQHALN

| IC50 [1] [nM] | IC50 [2] [nM] | SMILES | other results |
| --- | --- | --- | --- |
| 12 | 33.9 | COc1ncc(-c2cc3c(C)nc(N)cc3n(C3CCCC3)c2=O)cc1NS(=O)(=O)c1ccc(F)cc1F | – |
| 39.6 | – | COc1ncc(-c2cc3c(C)nc(N)cc3n(C3CC3)c2=O)cc1NS(=O)(=O)c1ccc(F)cc1F | – |
| 174 | 65.6 | COc1ccc(S(=O)(=O)Nc2cc(-c3cc4c(C)nc(N)cc4n(C4CCCC4)c3=O)cnc2OC)cc1 | – |
| 14.3 | 24.7 | COc1ncc(-c2cc3c(C)nc(N)cc3n(C3CCCC3)c2=O)cc1NS(=O)(=O)c1ccc(C#N)cc1 | – |
| – | 35.3 | COc1ncc(-c2cnc3nc(N)nc(C)c3c2)cc1NS(=O)(=O)c1ccc(F)cc1F | – |
| 60.5 | 13.9 | COc1ncc(-c2cc3c(C)nc(N)cc3n(C3CCCC3)c2=O)cc1NS(=O)(=O)c1cccc(F)c1 | – |
| 175 | 78.2 | COc1ncc(-c2cc3c(C)nc(N)cc3n(C3CCCC3)c2=O)cc1NS(=O)(=O)c1ccc(C(F)(F)F)cc1 | – |
| 31.2 | 8.49 | COc1ncc(-c2cc3c(C)nc(N)cc3n(C3CCCC3)c2=O)cc1NS(=O)(=O)c1ccc(Cl)s1 | – |
| 2.9 | 13.9 | Cc1nc(N)cc2c1cc(-c1cnc3[nH]cnc3c1)c(=O)n2C1CCCC1 | – |
| 35.6 | 18.4 | COc1ncc(-c2cnc3nc(N)nc(-c4ccncc4)c3c2)cc1NS(=O)(=O)c1ccc(F)cc1F | – |
| 9.9 | 28.7 | COc1ncc(-c2cc3c(C)nc(N)cc3n([C@H]3CC[C@H](O)CC3)c2=O)cc1NS(=O)(=O)c1ccc(F)cc1F | – |
| 42.8 | 126 | COc1ncc(-c2cc3c(C)nc(N)cc3n(C(C)C)c2=O)cc1NS(=O)(=O)c1ccc(F)cc1F | – |
| 5.95 | 160 | COc1ncc(-c2cc3c(C)nc(N)cc3n(C3CCCC3)c2=O)cc1F | – |
| > 10000 | > 10000 | COc1ccc(-c2cn([C@H]3CC[C@H](OCCO)CC3)c3nc(N)nc(C)c23)cn1 | – |
| 23.1 | 62.6 | COc1ncc(-c2cc3c(C)nc(N)cc3n(C3CCCC3)c2=O)cc1NS(C)(=O)=O | – |
| 3.43 | 2.32 | COc1ncc(-c2ccc3nc(N)nc(C)c3c2)cc1NS(=O)(=O)c1ccc(F)cc1F | – |
| 6 | 172 | Cc1nc(N)cc2c1cc(-c1cnc3[nH]ncc3c1)c(=O)n2C1CCCC1 | – |
| 117 | 19.2 | COc1ncc(-c2cc3c(C)nc(N)cc3n(C3CCCC3)c2=O)cc1NS(=O)(=O)c1ccccc1 | – |
| 8.6 | 13.4 | COc1ncc(-c2cc3c(C)nc(N)cc3n(C3CCOCC3)c2=O)cc1NS(=O)(=O)c1ccc(F)cc1F | – |
| 69.1 | 141 | COc1ncc(-c2cc3c(C)nc(N)cc3n(C3CCCC3)c2=O)cc1NS(=O)(=O)C1CC1 | – |
| 35.4 | 11.2 | COc1ccc(-c2cc3c(C)nc(N)cc3n([C@H]3CC[C@H](OCCO)CC3)c2=O)cn1 | – |
| 6.45 | 36.5 | COc1ncc(-c2cc3c(C)nc(N)cc3n(C3CCCC3)c2=O)cn1 | – |
| 2.42 | 8.55 | COc1ncc(-c2cc3c(C)nc(N)cc3n([C@H]3CC[C@H](OCCO)CC3)c2=O)cc1NS(=O)(=O)c1ccc(F)cc1F | IC50 (SK-OV-3): 2100 nM; bioavailability [3]: 8.5%; clearance [4]: 2.87 mL/min/kg; half-life [5]: 7.67 h; half-life [6]: 1.33 h; AUC(0-inf) [7]: 3440 ng·h/mL; AUC(0-inf) [8]: 8090 ng·h/mL |
| – | 30.1 | COc1ccc(-c2cc3c(C)nc(N)nc3n(C3CCCC3)c2=O)cn1 | – |
| 5550 | > 10000 | COc1ccc(-c2cc3c(C)nc(N)nc3n2[C@H]2CC[C@H](OCCO)CC2)cn1 | – |
| 15.2 | 82.1 | Cc1nc(N)cc2c1cc(-c1cnc3c(ccn3C)c1)c(=O)n2C1CCCC1 | – |
| 37.3 | – | COc1ncc(-c2cc3c(C)nc(N)cc3n(C3CCCC3)c2=O)cc1NS(=O)(=O)c1ccccc1F | – |
| 2.45 | 12.3 | Cc1nc(N)cc2c1cc(-c1cnc3[nH]ccc3c1)c(=O)n2C1CCCC1 | – |
| 72.6 | 35 | COc1ncc(-c2cc3c(C)nc(N)cc3n(C3CCCC3)c2=O)cc1NS(=O)(=O)c1ccc(F)cc1 | – |
| 13.6 | 39 | COc1ccc(-c2cc3c(C)nc(N)cc3n(C3CCCC3)c2=O)cn1 | – |
